In brackets after ≈: the same amount, converted by molar mass.
How the values were obtained:
Experiment in all cases: Broth microdilution MIC in iron-depleted CAMHB (IDM)
Format in all cases: cell-based
P. aeruginosa CDC-0110 = details: Pseudomonas aeruginosa, CDC0110, read-out: Minimum Inhibitory Concentration, P. aeruginosa CDC-0110
Procedure: (§1) To determine the ability of test compounds to inhibit the growth bacterial strains under conditions of iron-depletion, classic cell based broth microdilution minimum inhibitory concentration (MIC) assays were employed. MIC assays are performed according to CLSI methods except where otherwise noted (CLSI, 2018 and CLSI, 2019). The reference type strain E. coli ATCC 25922 was used to determine the ability of the PBP inhibitors to inhibit the growth of Enterobacteriaceae. Wild-type P. aeruginosa ATCC 27853, A. baumannii ATCC 17978 and A. baumannii ATCC 19606, along with the hyper-permeable P. aeruginosa ATCC 35151, an engineered efflux pump-compromised strain of P. aeruginosa (ΔmexAB-oprM), and an engineered efflux-pump compromised strain of A. baumannii IL123 (ABΔ3-ARAEcPore) were used to determine the ability of PBP inhibitors to penetrate the outer membrane of P. aeruginosa and A. baumannii and assess antibacterial activity against these important gram-negative organisms.
(§2) Briefly, cryo-preserved bacterial cultures of challenge strains are streaked for isolation on appropriate agar medium, in this case cation-adjusted Mueller Hinton agar. Following incubation to allow growth of the colonies, plates are sealed with parafilm and stored refrigerated for up to two weeks. For preparation of assay inoculum and to ensure low variability, at least 5 colonies are picked from the agar plates with an inoculating loop and aseptically transferred to a culture tube containing 3 mL of iron-depleted cation-adjusted Mueller Hinton broth (IDM)—see below for IDM preparation. The broth culture is grown for 3-5 hours at 37° C. with shaking at 200 rpm. Meanwhile, 2-fold serial dilutions of test compounds are conducted in a 96-well plate with a final volume of 75 μL per well at 2-fold the final desired concentration. After the dilution plates are set up the growing cultures are then diluted in a cuvette containing IDM and the optical density is measured at 600 nm. The inoculum is diluted such that 75 μL of this culture in IDM results in a starting bacterial concentration of 2-8×10^5 CFU/mL when added to the dilution plates. The plates are incubated for 16-20 hours for Enterobacteriaceae and Pseudomonas and 20-24 hours for Acinetobacter at 37° C. The MIC values are read visually as the lowest concentration well with no bacterial growth.
(§3) Method for Iron-Depleted Cation-Adjusted Mueller Hinton Broth (IDM) Preparation:
(§4) • Prepare cation-adjusted Mueller Hinton broth as per the manufacturer's recommendations and autoclave. • Add 100 g/L Chelex 100 resin, cover with foil and incubate with stirring for 2 hours • Remove Chelex 100 resin by filtration with 0.45 μm filter flask • Add the following back to the medium: • CaCl2 dihydrate: 82.5 mg/L • MgCl2 hexahydrate: 94.1 mg/L • ZnSO4: 10 μM • Adjust pH of medium to 7.3 with 5 N HCl • Sterilize using a 0.22 µm filter flask

[1] = tested on: A. baumannii CDC-0045 producing TEM-1D, OXA-23, and OXA-69; details: Acinetobacter baumannii, read-out: Minimum Inhibitory Concentration, CDC-0045
[2] = tested on: A. baumannii CDC-0083 producing NDM-1, PER-7, OXA-23, and OXA-69; details: Acinetobacter baumannii, read-out: Minimum Inhibitory Concentration, CDC-0083
Procedure: (§5) Example IV: In Vitro Antibacterial Assays in Iron-Depleted Cation-Adjusted Mueller-Hinton Broth
as §1, §2, §3, §4

[3] = tested on: P. aeruginosa (ΔmexAB-oprM); details: Pseudomonas aeruginosa, read-out: Minimum Inhibitory Concentration, P. aeruginosa ΔmexAB-OprM
Procedure: as §5, §1, §2, §3, §4

[4] = tested on: P. aeruginosa CDC-0054 producing VIM-4, OXA-50, and PAO; details: Pseudomonas aeruginosa, read-out: Minimum Inhibitory Concentration, P. aeruginosa CDC-0054
Procedure: as §5, §1, §2, §3, §4

[5] = tested on: A. baumannii CDC-0033 producing NDM-1, and OXA-94; details: Acinetobacter baumannii, read-out: Minimum Inhibitory Concentration, CDC-0033
Procedure: as §5, §1, §2, §3, §4

P. aeruginosa ATCC 35151 = details: Pseudomonas aeruginosa, ATCC35151; iron-depleted MHB (IDM); hyper-permeable strain; read-out: Minimum Inhibitory Concentration, P. aeruginosa ATCC 35151
Procedure: as §5, §1, §2, §3, §4

[6] = tested on: P. aeruginosa CDC-0090 producing KPC-5, OXA-50, and PAO; details: Pseudomonas aeruginosa, read-out: Minimum Inhibitory Concentration, P. aeruginosa CDC-0090
Procedure: as §5, §1, §2, §3, §4

[7] = tested on: P. aeruginosa CDC-0095 producing OXA-50, and PAO; details: Pseudomonas aeruginosa, read-out: Minimum Inhibitory Concentration, P. aeruginosa CDC-0095
Procedure: as §5, §1, §2, §3, §4

P. aeruginosa ATCC 27853 = details: Pseudomonas aeruginosa, ATCC27853, read-out: Minimum Inhibitory Concentration, P. aeruginosa ATCC 27853
Procedure: as §5, §1, §2, §3, §4

A. baumannii ATCC 17978 = details: Acinetobacter baumannii, ATCC17978, read-out: Minimum Inhibitory Concentration, ATCC 17978
Procedure: as §5, §1, §2, §3, §4

[8] = tested on: A. baumannii CDC-0036 OXA-65, and OXA-24; details: Acinetobacter baumannii, read-out: Minimum Inhibitory Concentration, CDC-0036
Procedure: as §5, §1, §2, §3, §4

A. baumannii ATCC 19606 = details: Acinetobacter baumannii, ATCC19606, read-out: Minimum Inhibitory Concentration, ATCC 19606
Procedure: as §5, §1, §2, §3, §4

Compound	MIC (P. aeruginosa CDC-0110) [µg/mL]	MIC [1] [µg/mL]	MIC [2] [µg/mL]	MIC [3] [µg/mL]	MIC [4] [µg/mL]	MIC [5] [µg/mL]	MIC (P. aeruginosa ATCC 35151) [µg/mL]	MIC [6] [µg/mL]	MIC [7] [µg/mL]	MIC (P. aeruginosa ATCC 27853) [µg/mL]	MIC (A. baumannii ATCC 17978) [µg/mL]	MIC [8] [µg/mL]	MIC (A. baumannii ATCC 19606) [µg/mL]
NCCN1CCN(C(=O)N[C@@H](C(=O)N[C@H]2Cc3ccc(F)c(C(=O)O)c3OB2O)c2c(F)cc(O)c(O)c2Cl)C(=O)C1=O (single isomer, unassigned) [Example 26]	0.5 to 1 (≈ 0.799 to 1.6 µM)	0.5 to 1 (≈ 0.799 to 1.6 µM)	0.25 (≈ 0.4 µM)	0.25 (≈ 0.4 µM)	0.5 to 1 (≈ 0.799 to 1.6 µM)	2 to 4 (≈ 3.2 to 6.39 µM)	0.25 (≈ 0.4 µM)	0.25 (≈ 0.4 µM)	32 to 64 (≈ 51.1 to 102 µM)	0.5 to 1 (≈ 0.799 to 1.6 µM)	0.25 (≈ 0.4 µM)	8 to 16 (≈ 12.8 to 25.6 µM)	0.5 to 1 (≈ 0.799 to 1.6 µM)
NCCCN1CCN(C(=O)N[C@@H](C(=O)N[C@H]2Cc3ccc(F)c(C(=O)O)c3OB2O)c2c(F)cc(O)c(O)c2Cl)C(=O)C1=O (single isomer, unassigned) [Example 27]	2 to 4 (≈ 3.13 to 6.25 µM)	0.5 to 1 (≈ 0.782 to 1.56 µM)	0.25 (≈ 0.391 µM)	0.25 (≈ 0.391 µM)	0.25 (≈ 0.391 µM)	0.5 to 1 (≈ 0.782 to 1.56 µM)	0.25 (≈ 0.391 µM)	0.25 (≈ 0.391 µM)	8 to 16 (≈ 12.5 to 25 µM)	0.5 to 1 (≈ 0.782 to 1.56 µM)	0.25 (≈ 0.391 µM)	2 to 4 (≈ 3.13 to 6.25 µM)	0.25 (≈ 0.391 µM)
O=C(O)c1ccc(C(NC(=O)N2CCN(CCNC(=O)c3ccc(O)c(O)c3Cl)C(=O)C2=O)C(=O)N[C@H]2Cc3ccc(F)c(C(=O)O)c3OB2O)cc1F (stereo partly drawn) [Example 11, (3R)-3-(2-(4-carboxy-3-fluorophenyl)-2-(4-(2-(2-chloro-3,4-dihydroxybenzamido)ethyl)-2,3-dioxopiperazine-1-carboxamido)acetamido)-7-fluoro-2-hydroxy-3,4-dihydro-2H-benzo[e][1,2]oxaborinine-8-carboxylic acid]				0.5 to 1 (≈ 0.646 to 1.29 µM)			0.25 (≈ 0.323 µM)			2 to 4 (≈ 2.58 to 5.17 µM)			> 128
CS(=O)(=O)N1CCN(C(=O)NC(C(=O)N[C@H]2Cc3ccc(F)c(C(=O)O)c3OB2O)c2ccc(O)c(O)c2Cl)C1=O (stereo partly drawn) [Example 23, (3R)-3-(2-(2-chloro-3,4-dihydroxyphenyl)-2-(3-(methylsulfonyl)-2-oxoimidazolidine-1-carboxamido)acetamido)-7-fluoro-2-hydroxy-3,4-dihydro-2H-benzo[e][1,2]oxaborinine-8-carboxylic acid]	2 to 4 (≈ 3.25 to 6.51 µM)	0.5 to 1 (≈ 0.813 to 1.63 µM)	0.5 to 1 (≈ 0.813 to 1.63 µM)	0.25 (≈ 0.407 µM)	0.5 to 1 (≈ 0.813 to 1.63 µM)	8 to 16 (≈ 13 to 26 µM)	0.25 (≈ 0.407 µM)	0.5 to 1 (≈ 0.813 to 1.63 µM)	8 to 16 (≈ 13 to 26 µM)	0.5 to 1 (≈ 0.813 to 1.63 µM)	0.25 (≈ 0.407 µM)	8 to 16 (≈ 13 to 26 µM)	0.25 (≈ 0.407 µM)
NC(C(=O)N[C@H]1Cc2ccc(F)c(C(=O)O)c2OB1O)c1c(F)cc(O)c(O)c1Cl (stereo partly drawn) [Example 25, (3R)-3-(2-amino-2-(2-chloro-6-fluoro-3,4-dihydroxyphenyl)acetamido)-7-fluoro-2-hydroxy-3,4-dihydro-2H-benzo[e][1,2]oxaborinine-8-carboxylic acid]	32 to 64 (≈ 72.3 to 145 µM)	32 to 64 (≈ 72.3 to 145 µM)	32 to 64 (≈ 72.3 to 145 µM)	32 to 64 (≈ 72.3 to 145 µM)	32 to 64 (≈ 72.3 to 145 µM)	32 to 64 (≈ 72.3 to 145 µM)	8 to 16 (≈ 18.1 to 36.2 µM)	32 to 64 (≈ 72.3 to 145 µM)	32 to 64 (≈ 72.3 to 145 µM)	32 to 64 (≈ 72.3 to 145 µM)	32 to 64 (≈ 72.3 to 145 µM)	32 to 64 (≈ 72.3 to 145 µM)	32 to 64 (≈ 72.3 to 145 µM)
O=C(O)c1ccc(C(NC(=O)c2c(F)cc(O)c(O)c2Cl)C(=O)N[C@H]2Cc3ccc(F)c(C(=O)O)c3OB2O)cc1F (stereo partly drawn) [Example 71, (3R)-3-(2-(4-carboxy-3-fluorophenyl)-2-(2-chloro-6-fluoro-3,4-dihydroxybenzamido)acetamido)-7-fluoro-2-hydroxy-3,4-dihydro-2H-benzo[e][1,2]oxaborinine-8-carboxylic acid]	0.25 (≈ 0.411 µM)	32 to 64 (≈ 52.6 to 105 µM)	32 to 64 (≈ 52.6 to 105 µM)	0.25 (≈ 0.411 µM)	0.5 to 1 (≈ 0.821 to 1.64 µM)	32 to 64 (≈ 52.6 to 105 µM)	0.25 (≈ 0.411 µM)	2 to 4 (≈ 3.29 to 6.57 µM)	0.5 to 1 (≈ 0.821 to 1.64 µM)	0.5 to 1 (≈ 0.821 to 1.64 µM)	32 to 64 (≈ 52.6 to 105 µM)	32 to 64 (≈ 52.6 to 105 µM)	32 to 64 (≈ 52.6 to 105 µM)
CCN1CCN(C(=O)NC(C(=O)N[C@H]2Cc3cccc(C(=O)O)c3OB2O)c2cccc(NC(=O)c3ccc(O)c(O)c3Cl)c2)C(=O)C1=O (stereo partly drawn) [Example 73, (3R)-3-(2-(3-(2-chloro-3,4-dihydroxybenzamido)phenyl)-2-(4-ethyl-2,3-dioxopiperazine-1-carboxamido)acetamido)-2-hydroxy-3,4-dihydro-2H-benzo[e][1,2]oxaborinine-8-carboxylic acid]	0.5 to 1 (≈ 0.721 to 1.44 µM)	32 to 64 (≈ 46.1 to 92.2 µM)	32 to 64 (≈ 46.1 to 92.2 µM)	0.25 (≈ 0.36 µM)	2 to 4 (≈ 2.88 to 5.76 µM)	32 to 64 (≈ 46.1 to 92.2 µM)	0.25 (≈ 0.36 µM)	2 to 4 (≈ 2.88 to 5.76 µM)	2 to 4 (≈ 2.88 to 5.76 µM)	8 to 16 (≈ 11.5 to 23.1 µM)	2 to 4 (≈ 2.88 to 5.76 µM)	32 to 64 (≈ 46.1 to 92.2 µM)	2 to 4 (≈ 2.88 to 5.76 µM)
